# According to US10106515B2, “1-(cyclopent-2-en-1-yl)-3-(2-hydroxy-3-(arylsulfonyl)phenyl)urea derivatives as CXCR2 inhibitors” (GLAXOSMITHKLINE INTELLECTUAL PROPERTY DEVELOPMENT LIMITED, priority 2014, dated 2018):
# Structures can show the parent of a compound that is named as a salt.
# Biological target: T1, recombinant human CXCR2 (Homo sapiens, UniProt P25025)
# T1 construct: TEV protease site; Gal4-VP16 transcription factor
# T1 sequence (P25025 1-360): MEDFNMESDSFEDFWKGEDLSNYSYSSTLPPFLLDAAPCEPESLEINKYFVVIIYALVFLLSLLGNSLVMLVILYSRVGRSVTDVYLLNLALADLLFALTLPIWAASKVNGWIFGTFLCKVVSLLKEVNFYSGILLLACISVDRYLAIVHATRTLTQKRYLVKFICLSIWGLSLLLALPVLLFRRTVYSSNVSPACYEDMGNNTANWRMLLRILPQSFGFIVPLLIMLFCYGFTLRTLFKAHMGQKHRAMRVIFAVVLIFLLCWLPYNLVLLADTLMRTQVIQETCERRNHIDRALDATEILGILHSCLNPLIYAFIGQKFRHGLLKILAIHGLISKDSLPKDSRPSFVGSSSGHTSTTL
# Test: CXCR2 Tango assay
# Format: cell-based
# Details: mean pIC50 of multiple test results; stimulated with 80 nM hCXCL1; reporter gene blue/green emission ratio; read-out: pIC50 (CXCR2 Tango assay) (converted)
# Description: The assay measures ligand-induced activation of the receptor CXCR2 in a stable cell line containing the recombinant human CXCR2 linked to a TEV protease site and a Gal4-VP16 transcription factor (Invitrogen). Ligand binding to the receptor results in the recruitment of arrestin proteins (tagged with protease) to the receptor and triggers the release of a tethered transcription factor. The transcription factor enters the nucleus and activates the transcription of the reporter gene. The ability of a compound to inhibit CXCR2 activation is indirectly assessed by measuring the reporter gene activity.
# A vial of cryopreserved cells was removed from liquid nitrogen and rapidly thawed in a water bath at 37° C. with gentle agitation. The contents of the vial were transferred drop-wise into Thawing Medium in a sterile 15 ml conical tube and then centrifuged at 1000 rpm for 4-5 min. Then the cell pellets were resuspended in Assay Medium at a density of ˜200,000 cells/ml. All test compounds were dissolved in DMSO at a concentration of 10 mM and were prepared in 100% DMSO to provide 10 point dose response curves. A reference CXCR2 antagonist was added to wells in row 2, columns 1-5 & 7-11. Exemplified compounds 1-4, 7, 8-10, 13-22, 24-26, 28-30, 32, 33, 36, 37, 40, 42-44. 95-110, 115-118, 120, 121, 125, 126, 129-134, 137, 138, 140, 142, 147-149, 153-157, 159-162, 163-166, 168, 170, 172, 174-180 and 202 were tested using the CXCR2 antagonist sodium 3-chloro-6-(3-(2,3-dichlorophenyl)ureido)-2-sulfamoylphenolate as reference compound (Reference Compound 1) (published International patent application WO2002/079122). […] Test compounds were added to wells in row 2, columns 13-17 & 19-23 and rows 3-15, columns 1-5 & 7-11/13-17 & 19-23 (columns 6 and 18 as positive controls and un-stimulated controls respectively; columns 12 and 24 as cell-free control). Compounds in solution were added to the assay plate (Greiner 781090) using an Echo (Labcyte) concentration-response program (50 nl/well). The cell-free, un-stimulated and positive controls were loaded with 50 nl/well pure DMSO to ensure that the DMSO concentration was constant across the plate for all assays. Using Multi-drop Combi (Thermo) with standard cassette, 50 μl of Assay Medium was added to each well in the cell-free controls (columns 12 and 24); 50 μl of the cell suspension without hCXCL1 (a CXCR2 ligand) was added to each well in column 18 of the plate (˜10,000 cells per well); and 50 μl of the cell suspension with 80 nM hCXCL1 was added to the rest of wells of the plate (˜10,000 cells per well). The cells were incubated overnight at 37° C./5% CO2. 10 μl of 6× substrate mixture (LiveBLAzer™-FRET B/G substrate (CCF4-AM) Cat # K1096 from Invitrogen, Inc.) was added to each well using Multi-drop Combi (Thermo) with small-tube cassette and the plates incubated at room temperature for 2 h in the dark. The plate was finally read on EnVision using one excitation channel (409 nm) and two emission channels (460 nm and 530 nm).
# The blue/green emission ratio (460 nm/530 nm) was calculated for each well, by dividing the background-subtracted Blue emission values by the background-subtracted Green emission values. The dose response curve was based on sigmoidal dose-response model. All ratio data was normalized based upon the maximum emission ratio of positive control (hCXCL1) and minimum emission ratio of negative control (DMSO) on each plate. The intrinsic activity (IA) of each compound would be the normalized percentage of its maximum response after curve fitting.
# All exemplified compounds (except for Compounds 203 and 204) were tested in the CXCR2 Tango assay or a similar assay described above. The data mentioned below represents a mean pIC 50 value of multiple test results. It is understood that the data illustrated below may have reasonable variation depending on the specific conditions and procedures used by the person conducting the testing.
structure (smiles),measurement,value
"O=C(Nc1ccc(Cl)c(S(=O)(=O)[C@H]2CCOC2)c1O)NC1C=CCC1 (stereo partly drawn) [Compound 175, 1-(4-chloro-2-hydroxy-3-(((S)-tetrahydrofuran-3-yl)sulfonyl)phenyl)-3-(cyclopent-2-en-1-yl)urea]",IC50,≤ 10 nM
"CC(c1ncccn1)S(=O)(=O)c1c(Cl)ccc(NC(=O)NC2CCC=C2Cl)c1O (stereo not drawn) [Compound 30, 1-(4-chloro-2-hydroxy-3-((1-(pyrimidin-2-yl)ethyl)sulfonyl)phenyl)-3-(2-chlorocyclopent-2-en-1-yl)urea]",IC50,≤ 10 nM
"CC1(S(=O)(=O)c2c(Cl)ccc(NC(=O)NC3CCC=C3Cl)c2O)CCOCC1 (stereo not drawn) [Compound 44, 1-(4-chloro-2-hydroxy-3-((4-methyltetrahydro-2H-pyran-4-yl)sulfonyl)phenyl)-3-(2-chlorocyclopent-2-en-1-yl)urea]",IC50,≤ 10 nM
"CC1=CCC[C@H]1NC(=O)Nc1ccc(Cl)c(S(=O)(=O)C(C)(C)[C@@H]2CCOC2)c1O [Compound 55, 1-(4-chloro-2-hydroxy-3-((2-((R)-tetrahydrofuran-3-yl)propan-2-yl)sulfonyl)phenyl)-3-((R)-2-methylcyclopent-2-en-1-yl)urea]",IC50,≤ 10 nM
"CC(C)(C)S(=O)(=O)c1c(Cl)ccc(NC(=O)NC2CCC=C2Cl)c1O (stereo not drawn) [Compound 3, 1-(3-(tert-butylsulfonyl)-4-chloro-2-hydroxyphenyl)-3-(2-chlorocyclopent-2-en-1-yl)urea]",IC50,≤ 10 nM
"CC1=CCCC1NC(=O)Nc1ccc(Cl)c(S(=O)(=O)[C@H]2CC[C@H](N3CCCC3)CC2)c1O (stereo partly drawn) [Compound 98, 1-(4-chloro-2-hydroxy-3-(((1R,4R)-4-(pyrrolidin-1-yl)cyclohexyl)sulfonyl)phenyl)-3-(2-methylcyclopent-2-en-1-yl)urea, trifluoroacetic acid salt]",IC50,≤ 1 nM
"CC1=CCCC1NC(=O)Nc1ccc(Cl)c(S(=O)(=O)C(C)(C)C(F)(F)F)c1O (stereo not drawn) [Compound 101, 1-(4-chloro-2-hydroxy-3-((1,1,1-trifluoro-2-methylpropan-2-yl)sulfonyl)phenyl)-3-(2-methylcyclopent-2-en-1-yl)urea]",IC50,≤ 1 nM
"COC1CCN(S(=O)(=O)c2c(Cl)ccc(NC(=O)NC3CCC=C3C)c2O)CC1 (stereo not drawn) [Compound 154, 1-(4-chloro-2-hydroxy-3-((4-methoxypiperidin-1-yl)sulfonyl)phenyl)-3-(2-methylcyclopent-2-en-1-yl)urea]",IC50,≤ 10 nM
"CC(C)(C(F)(F)F)S(=O)(=O)c1c(Cl)ccc(NC(=O)NC2C=CCC2)c1O (stereo not drawn) [Compound 1, 1-(4-chloro-2-hydroxy-3-((1,1,1-trifluoro-2-methylpropan-2-yl)sulfonyl)phenyl)-3-(cyclopent-2-en-1-yl)urea]",IC50,≤ 10 nM
"CC1=CCCC1NC(=O)Nc1ccc(Cl)c(S(=O)(=O)C(C)(C)c2ccccn2)c1O (stereo not drawn) [Compound 102, 1-(4-chloro-2-hydroxy-3-((2-(pyridin-2-yl)propan-2-yl)sulfonyl)phenyl)-3-(2-methylcyclopent-2-en-1-yl)urea, trifluoroacetic acid salt]",IC50,≤ 10 nM
"CC1=CCC[C@H]1NC(=O)Nc1ccc(Cl)c(S(=O)(=O)C(F)(F)c2ccccn2)c1O [Compound 63, (R)-1-(4-chloro-3-((difluoro(pyridin-2-yl)methyl)sulfonyl)-2-hydroxyphenyl)-3-(2-methylcyclopent-2-en-1-yl)urea, trifluoroacetic acid salt]",IC50,≤ 1 nM
"C[C@@]1(S(=O)(=O)c2c(Cl)ccc(NC(=O)N[C@@H]3CCC=C3Cl)c2O)CCOC1 (single isomer, unassigned) [Compound 198]",IC50,≤ 10 nM
"CC(C)(CO)S(=O)(=O)c1c(Cl)ccc(NC(=O)N[C@@H]2CCC=C2Cl)c1O [Compound 12, (R)-1-(4-chloro-2-hydroxy-3-((1-hydroxy-2-methylpropan-2-yl)sulfonyl)phenyl)-3-(2-chlorocyclopent-2-en-1-yl)urea]",IC50,≤ 10 nM
"CC1=CCC[C@H]1NC(=O)Nc1ccc(Cl)c(S(=O)(=O)C2(C)CC3(COC3)C2)c1O [Compound 65, (R)-1-(4-chloro-2-hydroxy-3-((6-methyl-2-oxaspiro[3.3]heptan-6-yl)sulfonyl)phenyl)-3-(2-methylcyclopent-2-en-1-yl)urea]",IC50,≤ 10 nM
"CC1=CCCC1NC(=O)Nc1ccc(Cl)c(S(=O)(=O)N2CCOCC2)c1O (stereo not drawn) [Compound 118, 1-(4-chloro-2-hydroxy-3-(morpholinosulfonyl)phenyl)-3-(2-methylcyclopent-2-en-1-yl)urea]",IC50,≤ 10 nM
"CC1=CCC[C@H]1NC(=O)Nc1ccc(Cl)c(S(=O)(=O)[C@H]2C[C@H](F)C2)c1O [Compound 50, 1-(4-chloro-3-((trans-3-fluorocyclobutyl)sulfonyl)-2-hydroxyphenyl)-3-((R)-2-methylcyclopent-2-en-1-yl)urea]",IC50,≤ 1 nM
"CC1=CCCC1NC(=O)Nc1ccc(Cl)c(S(=O)(=O)N2CCn3ccnc3C2)c1O (stereo not drawn) [Compound 117, 1-(4-chloro-3-((5,6-dihydroimidazo [1,2-a]pyrazin-7(8H)-yl)sulfonyl)-2-hydroxyphenyl)-3-(2-methylcyclopent-2-en-1-yl)urea]",IC50,≤ 10 nM
"CC1=CCCC1NC(=O)Nc1ccc(Cl)c(S(=O)(=O)N2CCC(F)(F)CC2)c1O (stereo not drawn) [Compound 115, 1-(4-chloro-3-((4,4-difluoropiperidin-1-yl)sulfonyl)-2-hydroxyphenyl)-3-(2-methylcyclopent-2-en-1-yl)urea]",IC50,≤ 10 nM
"C[C@]1(S(=O)(=O)c2c(Cl)ccc(NC(=O)N[C@@H]3CCC=C3Cl)c2O)CCOC1 (single isomer, unassigned) [Compound 197]",IC50,≤ 10 nM
"CC1=CCC[C@H]1NC(=O)Nc1ccc(Cl)c(S(=O)(=O)C2CC3(COC3)C2)c1O [Compound 77, (R)-1-(3-(2-oxaspiro[3.3]heptan-6-ylsulfonyl)-4-chloro-2-hydroxyphenyl)-3-(2-methylcyclopent-2-en-1-yl)urea]",IC50,≤ 1 nM
"O=C(Nc1ccc(Cl)c(S(=O)(=O)[C@H]2CCOC2)c1O)NC1CCC=C1Cl (stereo partly drawn) [Compound 179, 1-(4-chloro-2-hydroxy-3-(((S)-tetrahydrofuran-3-yl)sulfonyl)phenyl)-3-(2-chlorocyclopent-2-en-1-yl)urea]",IC50,≤ 10 nM
"CC1=CCCC1NC(=O)Nc1ccc(Cl)c(S(=O)(=O)C(C)(C)C)c1O (stereo not drawn) [Compound 100, 1-(3-(tert-butylsulfonyl)-4-chloro-2-hydroxyphenyl)-3-(2-methylcyclopent-2-en-1-yl)urea]",IC50,≤ 10 nM
"CC(c1ccccn1)S(=O)(=O)c1c(Cl)ccc(NC(=O)NC2C=CCC2)c1O (stereo not drawn) [Compound 24, 1-(4-chloro-2-hydroxy-3-((1-(pyridin-2-yl)ethyl)sulfonyl)phenyl)-3-(cyclopent-2-en-1-yl)urea, trifluoroacetic acid salt]",IC50,≤ 10 nM
"CC(F)(F)S(=O)(=O)c1c(Cl)ccc(NC(=O)NC2C=CCC2)c1O (stereo not drawn) [Compound 36, 1-(4-chloro-3-((1,1-difluoroethyl)sulfonyl)-2-hydroxyphenyl)-3-(cyclopent-2-en-1-yl)urea]",IC50,≤ 10 nM
